“Also recorded” adds a separate entry of the source.
Assays:
[1] = tested on: beta-catenin; test: FACS analysis of activated beta-catenin in LSC engrafted mice; type: in vivo, human; conditions: LSC engrafted mice BM; compared with vehicle controls
Description: A lentiviral TCF/LEF reporter was utilized in human blast crisis CML cells, K562^1. Lentiviral pCDH backbone, ADAR1^WT, shControl, and shADAR1 K562 stable cell lines were transduced with pGreenFire1-TCF/LEF1 reporter (SBI) lentivirus for 72-hours and analyzed using CellTiter-Glo and One-Glo luciferase assays (Promega). Mean fluorescence intensity (MFI) of activated beta-catenin in human CD45^+ cells, HSCs (CD45^+CD34^+CD38^− Lin) and HPCs (CD45^+CD34^+[…] Lin) from engrafted mouse bone marrow and spleen was analyzed with a Miltenyi Biotec MACS Quant flow cytometer after staining with lineage, CD45, CD34 and CD38 (BD antibodies) as well as LIVE/DEAD stain, followed by 1% paraformaldehyde fixation, permeabilization with saponin, and staining with an anti-active beta-catenin antibody (Millipore cat #05-665, and BD custom conjugation) (see Supplementary Appendix).
To assess WNT/beta-catenin activation in response to ADAR1 upregulation, a lentiviral TCF/LEF reporter was utilized in human blast crisis CML cells, K562^26. […] A minimum of 50,000 cells were plated in duplicate, lysed according to the manufacturer's protocol, and measured using preloaded protocols on a Promega GloMax Discover Microplate Reader. One-Glo luciferase readouts were normalized to corresponding CellTiter-Glo values. […]

[2] = tested on: MF CD34+ cells engrafted in NSG-SGM3 mice; test: Humanized MF MPN-SPC (pre-LSC) mouse model; type: in vivo
Description: Human CD34^+ cells isolated from MF and BC CML samples (Table S2, illustrated as FIG. 11) were transplanted intravenously into adult NSG-SGM3 (expressing human IL-3, GM-CSF and SCF) mice following 300 cGy of irradiation or intrahepatically into neonatal RAG2^−/− yc^−/− mice, respectively^27,32.
Human CD34^+ cells isolated from MF and BC CML (Table S2) samples were transplanted intravenously into adult NSG-SGM3 (expressing human IL-3, GM-CSF and SCF) mice following
300 cGy of irradiation or intrahepatically into newborn RAG2^−/−[…]c^−/− mice^28,32,34. Post-transplantation (13 to 16 weeks), bone marrow and spleen were collected and analyzed by FACS^32. Mice were treated with vehicle, mismatch or imetelstat at varying doses. Also, MF CD34^+ cells were transduced with pCDH lentivirus control or ADAR1-OE lentivirus with a MOI of 100 for 48 hours, followed by intravenous transplantation into NSG-SGM3 mice to assess the impact of ADAR1 overexpression on MF engraftment.
FIG. 4A. A schema of humanized BC CML LSC and MF SPC mouse models. Human CD34^+ cells sorted from either BC CML or myelofibrosis patient blood or marrow were transplanted into neonatal Rag2^−/−[…]c^−/− mice or intravenously transplanted into adult NSG-S mice. Engrafted BC CML or MF mouse models were randomized into (1) vehicle control, (2) mismatch control, and (3) imetelstat treatment groups (n≥3/group). Bone marrow (BM) and spleen were collected when completing the dosing plan, and the single-cell suspension was analyzed by FACS.
FIG. 4B. Bone marrow from each treatment group was collected for histological examination and FACS analysis. Left: Photomicrogaphs depict reticulin staining, DAPI staining, human CD45^+ expression and merged DAPI and CD45 images in bone marrow collected from no transplant, vehicle, and mismatch controls as well as from imetelstat treated myelofibrosis (MF) mouse models. Right: FACS analysis plots depicting forward scatter (FSC, y-axis) and human CD45 engraftment (x-axis) in no transplant, vehicle, and mismatch controls as well as imetelstat treated MF mouse models.

imetelstat
activated beta-catenin expression / activity by FACS [1]: significant reduction; also recorded: significantly reduced
progenitor (CD34+CD38+Lin-) engraftment by FACS ([2]; MF318 mouse BM, compared to control treated mice, p<0.04): lower
human CD45+ engraftment by FACS ([2]; MF mouse BM, compared to control treated mice, p<0.014): lower
human CD45+ leukemic cell engraftment by confocal immunofluorescence microscopy ([2]; bone marrow, vs vehicle and mismatch controls): lower
splenomegaly ([2]; compared to control treated mice): decreased splenomegaly
proliferation of human CD45+ cells in bone marrow and spleen ([2]; pre-LSC mouse models from 4 different MF samples, vs vehicle controls, p<0.01, t test): significant reduction
reticulin fibrosis in bone marrow (immunohistochemistry) ([2]; vs vehicle and mismatch controls): less reticulin fibrosis
